The values that follow are results of earlier work, collected in patent publication US8211048B2 (Henry Ford Health System, priority 2006, dated 2012).

Like-named read-outs stand apart in the source and are kept apart here.

As to `O=C(O)CC(O)(CC(=O)O)C(=O)O` [Citrate], for the setting “25 C”, the pKa2 was 4.76 and the pKa3 is recorded as 6.40. Under “as given for pre-filter fluid pH”, the pKa3 was 6.3.
